{
  "source": "patent US20120065228A1",
  "about": "“COMPOSITIONS AND METHODS FOR TREATING, CONTROLLING, REDUCING, OR AMELIORATING OCULAR INFLAMMATORY WITH LOWER RISK OF INCREASED INTRAOCULAR PRESSURE” (priority 2007, published 2012)",
  "key": {"[1]": {"system": "myocilin protein in CM of monkey TM cells", "assay": "Myocilin protein in conditioned media of monkey TM cells (Western blot)", "assay_type": "cell-based, rhesus monkeys (Macaca mulatta)", "conditions": "for Effect on myocilin concentrations in CM: 3 to 300 nM, second 48-hour treatment period", "description": "All animal procedures were in accordance with the ARVO (Association for Research in Vision and Ophthalmology) resolution on animal care. Eyes from freshly killed, healthy rhesus monkeys (Macaca mulatta), obtained from Lonza (Walkersville, Md.), were transported in CO2-independent medium on ice, and processed approximately 40 hours post-enucleation. Following removal of iris, lens, and the bulk of the ciliary body, opercula (an anatomical feature of monkey TM) were stripped from anterior segment quadrants. Using fine scissors, strips of TM were excised, and subdivided TM fragments were explanted to multiwell plates containing growth medium (described below) and incubated with Cytodex-3 gelatin-coated beads (Sigma Chemical Company, St. Louis, Mo.). The beads attach to the explants within hours and provide additional substrate area for out-migration of cells. Proliferating TM cells colonize additional beads and also “spill” onto the tissue culture plastic and form colonies. After several days, the original TM explants and beads were transferred to new wells, generating additional primary cultures. Subconfluent monolayers of cells on tissue culture plastic were passed from 12-well plates to 35- or 60-mm dishes using a Collagenase-Dispase (Roche Applied Bioscience, Indianapolis, Ind.). Second- or third-passage subcultures were finally harvested enzymatically as above, and the cells were counted and cryopreserved in liquid nitrogen.\nFor each study, up to nine TM cell strains, each derived from an individual monkey, were tested separately. Cells were thawed and seeded into 12- or 48-well clusters (Falcon, BD Biosciences; 150,000 and 30,000 cells/well, respectively) in proliferation medium. When cells were 75% to 90% confluent proliferation medium was replaced by a 5:4 mixture of HESFM and Dulbecco's MEM, respectively, supplemented with 10% FBS, with added taurine, ascorbic acid phosphate, glutathione, and antibiotic as for proliferation medium (above), and with 2.72 g/L glucose and 1.72 g/L fructose. At confluence, the medium was changed to Dulbecco's MEM, containing 10% FBS^40, ascorbic acid phosphate, antibiotic, 2.72 g/L glucose and 1.72 g/L fructose. Cells were maintained as stable, confluent monolayers in this latter medium for 4 to 7 days before experimental treatments commenced.\nAll treatments, including media for vehicle control samples, contained a final DMSO concentration of 0.1% (v/v) across the concentration ranges selected. Treatments lasted 96 hours, with one exchange of medium on the third treatment day. The final 48-hr conditioned media (“CM”) samples were collected in their entirety (0.5 ml), centrifuged briefly to remove particulates, aliquoted, and stored at −20° C. until thawed for analysis.\nUndiluted CM was combined with denaturing 4× sample buffer containing 2% SDS, and samples were loaded at equivalent protein content onto 4-20% Tris-HCl polyacrylamide gels (BioRad, Hercules, Calif.). After electrophoresis, proteins underwent wet transfer to […] nitrocellulose (BioRad) for immunoblotting. The filters were blocked with 5% (w/v) nonfat dry milk (BioRad) in Tris-buffered saline plus 0.02% (v/v) Tween-20 (“TBST”; Tween-20 from Calbiochem, San Diego, Calif.), and incubated with a 1:2000 dilution (from 200 μg/ml) of goat anti-recombinant human myocilin antibody (R&D Systems, Minneapolis, Minn.) in blocking buffer, overnight at 4° C. […]"}, "[2]": {"system": "New Zealand White rabbits", "assay_type": "in vivo", "conditions": "for Rabbits that died or were euthanized between Days 11 and 33: right eye four times daily, Days 1-31; for Mortality (animals found dead or euthanized prior to study completion/number of animals in group): 50 μL topical right eye 4 x daily, to Day 33; for Mortality rate: right eye four times daily up to 31 days, dexamethasone 0.05 mg/dose, BOL-303242-X per dose level (0.05, 0.25, 0.5 mg/dose)", "description": "On Days 1-31, animals received daily topical doses of the appropriate test article into the right eye. Animals were dosed four times per day, with doses administered 2 hours apart. Doses were administered using a calibrated 50-μL pipette. The eyelids were held close for 10 seconds immediately following dosing. The time of each dose administration was recorded.\nAnimals determined to be moribund were euthanized with an intravenous injection of commercial euthanasia solution."}, "[3]": {"system": "PGE2 in the aqueous humor", "assay": "Prostaglandin E2 (PGE2) measurement in aqueous humor, rabbit paracentesis model", "assay_type": "in vivo", "conditions": "for PGE2 in aqueous humor, statistical significance versus CTR: p<0.05; for PGE2 in aqueous humor, Mean / PGE2 in aqueous humor: second paracentesis; for PGE2 in aqueous humor: individual eyes", "description": "Each rabbit was placed in a restraint device and tagged with the alphanumeric code. The formulations were instilled (50 μl) into the conjunctival sac of both eyes 180, 120, 90 and 30 min before the first paracentesis; then 15, 30, 90 min after the first paracentesis. To perform the first paracentesis the animals were anaesthetized by intravenous injection of 5 mg/kg Zoletil® (Virbac; 2.5 mg/kg tiletamine HCl and 2.5 mg/kg zolazepam HCl) and one drop of local anesthetic (Novesina®, Novartis) was administered to the eye. Anterior chamber paracentesis was performed with a 26 G needle attached to a tuberculin syringe; the needle was introduced into the anterior chamber through the cornea, taking care not to damage the tissues. Two hours after the ® first paracentesis, the animals were sacrificed with 0.4 ml Tanax® (Intervet International B.V.) and the second paracentesis was performed. About 100 μl of aqueous humor were removed at the second paracentesis. Aqueous humor was immediately split in four aliquots and stored at −80° C. until analysis. Then both eyes were enucleated and the iris-ciliary body was carefully excised, placed in polypropylene tubes, and stored at −80° C. until analysis.\nFor the quantitative determination of PGE2 in the aqueous humor we used the PGE2 Immunoassay kit (R&D Systems; Cat. No. KGE004; Lot. No. 240010). Eleven microliters or 16 μl of aqueous humor were diluted to 110 μl or 160 μl with the calibrator diluent solution provided with the kit. One hundred microliters of samples and of standards were load into a 96-well plate and recorded in a plate layout. Samples were treated following the assay procedure described in the kit. A microplate reader (GDV, Italy; model DV 990 B/V6) set at 450 nm (wavelength correction at 540 nm) was used for making the calibration and analyzing the samples.\nPupillary diameter, PGE2, protein, PMN, and MPO were expressed as mean±SEM. Statistical analysis was performed using one way ANOVA followed by a Newman-Keuls post hoc test. Clinical score was expressed as % of eyes and the statistical analysis was performed using Kruskal-Wallis followed by a Dunn post hoc test. P<0.05 was considered statistically significant in both cases. Prism 4 software (GraphPad Software, Inc.) was used for the analysis and graphs."}, "[4]": {"conditions": "0.05 mg/dose (0.1% dexamethasone suspension; 1 mg/g BOL-303242-X suspension)"}},
  "note": "“And” between values parts separate entries of the source, which are not always exact repeats. Identical values can stand only once. Like-named read-outs stand apart in the source and are kept apart here.",
  "data": [
    {"smiles": "Cc1ccc2c(NCC(O)(CC(C)(C)c3cc(F)cc4c3OCC4)C(F)(F)F)cccc2n1", "note": "(stereo not shown) [BOL-303242-X]", "values": [
      {"measurement": "Levels of myocilin protein released by cultured monkey TM cells, compared to DEX", "setting": "[1]", "result": "significantly lower levels"},
      {"measurement": "Effect on myocilin concentrations in CM", "setting": "[1]", "result": "increased myocilin concentrations in a dose-dependent manner"},
      {"measurement": "Maximal efficacy for myocilin accumulation in CM, relative to DEX treatment", "setting": "[1]; computed across all nine TM cells strains", "result": "about 50%"},
      {"measurement": "Activity on myocilin gene expression", "setting": "[1]; monkey TM cells, compared with DEX at high doses", "result": "partial agonist activity"},
      {"measurement": "Rabbits that died or were euthanized between Days 11 and 33", "setting": "[2]; [4]", "result": "one of ten"},
      {"measurement": "Mortality (animals found dead or euthanized prior to study completion/number of animals in group)", "setting": "[2]; 1 mg/g, 0.05 mg/dose", "result": "1/10^(6)"},
      {"measurement": "Day of Death (day euthanized or found dead)", "setting": "[2]; 5 mg/g BOL-303242-X ([…]) topical 4 x daily, individual rabbits, Group C", "result": 33},
      {"measurement": "Rabbits that died or were euthanized between Days 11 and 33", "setting": "[2]; 5 mg/g suspension ([…])", "result": "two of ten"},
      {"measurement": "Mortality (animals found dead or euthanized prior to study completion/number of animals in group)", "setting": "[2]; 5 mg/g, […]", "result": "2/10^(5)"},
      {"measurement": "Day of Death (day euthanized or found dead)", "setting": "[2]; 10 mg/g BOL-303242-X (0.5 mg/dose) topical 4 x daily, individual rabbit, Group B", "result": 11},
      {"measurement": "Rabbits that died or were euthanized between Days 11 and 33", "setting": "[2]; 10 mg/g suspension (0.5 mg/dose)", "result": "one of ten"},
      {"measurement": "Morbidity observation in surviving rabbits", "setting": "[2]; 10 mg/g suspension (0.5 mg/dose), one surviving rabbit (Group B, No. 3048)", "result": "diarrhea on Day 18"},
      {"measurement": "Mortality (animals found dead or euthanized prior to study completion/number of animals in group)", "setting": "[2]; 10 mg/g, 0.5 mg/dose", "result": "1/10^(4)"},
      {"measurement": "Mortality rate", "setting": "[2]", "result": "1-2 deaths per 10 rabbits"},
      {"measurement": "PGE2 in aqueous humor, statistical significance versus CTR", "setting": "[3]; 0.1% topical formulation", "result": "statistically significant versus CTR"},
      {"measurement": "PGE2 in aqueous humor, Mean", "setting": "[3]; 0.1% topical formulation", "result": 1.452, "unit": "ng/mL"},
      {"measurement": "PGE2 in aqueous humor", "setting": "[3]; 0.1% topical formulation, listed as BOL", "result": "1.62 ng/mL and 1.88 ng/mL and 2.15 ng/mL and 0.70 ng/mL and 1.34 ng/mL and 1.03 ng/mL"},
      {"measurement": "PGE2 in aqueous humor, statistical significance versus CTR", "setting": "[3]; 0.5% topical formulation", "result": "statistically significant versus CTR"},
      {"measurement": "PGE2 in aqueous humor, Mean", "setting": "[3]; 0.5% topical formulation", "result": 1.384, "unit": "ng/mL"},
      {"measurement": "PGE2 in aqueous humor", "setting": "[3]; 0.5% topical formulation, listed as BOL", "result": "2.31 ng/mL and 2.59 ng/mL and 0.53 ng/mL and 0.75 ng/mL and 0.80 ng/mL and 1.62 ng/mL and 1.09 ng/mL"},
      {"measurement": "PGE2 in aqueous humor, Mean", "setting": "[3]; 1% topical formulation", "result": 2.168, "unit": "ng/mL"},
      {"measurement": "PGE2 in aqueous humor", "setting": "[3]; 1% topical formulation, listed as BOL", "result": "0.50 ng/mL and 1.87 ng/mL and 1.71 ng/mL and 4.04 ng/mL and 1.11 ng/mL and 3.78 ng/mL"}
    ]},
    {"smiles": "C[C@@H]1C[C@H]2[C@@H]3CCC4=CC(=O)C=C[C@]4(C)[C@@]3(F)[C@@H](O)C[C@]2(C)[C@@]1(O)C(=O)CO", "note": "[dexamethasone, reference compound]", "values": [
      {"measurement": "Effect on myocilin concentrations in CM", "setting": "[1]", "result": "increased myocilin concentrations in a dose-dependent manner"},
      {"measurement": "Rabbits that died or were euthanized between Days 11 and 33", "setting": "[2]; [4]", "result": "Six of ten"},
      {"measurement": "Mortality (animals found dead or euthanized prior to study completion/number of animals in group)", "setting": "[2]; 0.1% Dexamethasone (Maxidex), 0.05 mg/dose", "result": "6/10^(3)"},
      {"measurement": "Mortality rate", "setting": "[2]", "result": 6, "unit": "deaths per 10 rabbits"},
      {"measurement": "PGE2 in aqueous humor, Mean", "setting": "[3]; 0.1% topical formulation", "result": 2.263, "unit": "ng/mL"},
      {"measurement": "PGE2 in aqueous humor", "setting": "[3]; 0.1% topical formulation, listed as Dex", "result": "2.51 ng/ml and 2.32 ng/ml (2×) and 2.10 ng/ml and 3.03 ng/ml and 1.30 ng/ml"}
    ]}
  ]
}
